# Test results published in US11912650B2, “Bakuchiol derivatives, pharmaceutically acceptable salts thereof, and preparation method and use of the same” (priority 2020, dated 2024).
# Read-outs that look alike come from different tables or passages of the source.
# How the values were obtained:
# MRSA N315 = assay: Antibacterial activity assay (broth dilution MIC); assay type: cell-based, methicillin-resistant Staphylococcus aureus; settings: Staphylococcus aureus, 37° C., 24 h, compounds 38, 44-45, 58-61, 63-64 with 0.05% Tween 80
# Experimental: (§1) Antibacterial activity assay. The antibacterial activities of all the compounds were determined according to a broth dilution method specified in Clinical and Laboratory Standards Institute (CLSI) guidelines. Bacterial cells were inoculated on a Mueller-Hinton agar (MHA) plate for overnight culture, and the concentration of the bacterial cells was adjusted to about 1×10^6 colony-forming units (CFU)/mL with phosphate buffered saline (PBS). First, a 1000 μg/mL stock solution (a final concentration of dimethyl sulfoxide (DMSO) was ≤2%) was prepared by dissolving a sample in DMSO/H2O. Then, the stock solution was diluted with Mueller-Hinton Broth (MHB) to an initial concentration of 100 μg/mL, and the sample solution (100 μL) was subjected to two-fold gradient dilution with MHB in a 96-well plate, to obtain 100 μg/mL to 0.78 μg/mL serial dilutions. Then, a bacterial suspension (100 μL) was added to each well of the 96-well plate and mixed with the test sample solution (100 μL). Among them, test systems for compounds 38, 44-45, 58-61 and 63-64 contained 0.05% of Tween 80. Finally, the 96-well plate was incubated at 37° C. for 24 hours. Absorbances at 600 nm at 0 and 24 h were measured. An minimum inhibitory concentration (MIC) value was defined as the lowest concentration where no visible bacterial growth occurred. All experiments were carried out in at least two duplicates, and biological repeatability could be achieved.
# MRSA NCTC10442 = assay: Antibacterial activity assay (broth dilution MIC); assay type: cell-based, methicillin-resistant Staphylococcus aureus; settings: Staphylococcus aureus, 37° C., 24 h, compounds 38, 44-45, 58-61, 63-64 with 0.05% Tween 80
# Experimental: as §1
# Gram-positive bacteria = assay: Antibacterial activity against Gram-positive bacteria (MIC summary); assay type: cell-based; settings: 24 h, read-out: minimum inhibitory concentration (MIC) against Gram-positive bacteria
# Experimental: as §1
# S. aureus ATCC29213 = assay: Antibacterial activity assay (broth dilution MIC); assay type: cell-based; settings: Staphylococcus aureus, 37° C., 24 h, compounds 38, 44-45, 58-61, 63-64 with 0.05% Tween 80
# Experimental: as §1
# E. coli ATCC25922 = assay: Antibacterial activity assay (broth dilution MIC); assay type: cell-based; settings: Escherichia coli, 37° C., 24 h, compounds 38, 44-45, 58-61, 63-64 with 0.05% Tween 80
# Experimental: as §1
smiles,measurement,setting,value
C=C[C@@](C)(/C=C/c1ccc(OCCCCNCCSC)cc1)CCC=C(C)C [Compound 25],MIC,MRSA N315,0.78 µg/mL
same,MIC,MRSA NCTC10442,1.56 µg/mL
same,MIC,Gram-positive bacteria; summary of tables 1 and 2,0.39 to 3.12 µg/mL
same,MIC,S. aureus ATCC29213,0.78 µg/mL
same,MIC,E. coli ATCC25922,50 µg/mL
C=C[C@](C)(/C=C/c1ccc(OCC(=O)N[C@@H](Cc2c[nH]cn2)C(=O)OC)cc1)CCC=C(C)C [Compound 40],MIC,MRSA N315,6.25 µg/mL
same,MIC,MRSA NCTC10442,6.25 µg/mL
same,MIC,S. aureus ATCC29213,6.25 µg/mL
same,MIC,E. coli ATCC25922,> 100 µg/mL
C=C[C@@](C)(/C=C/c1ccc(OCCCCCCCCN(CC)CC)cc1)CCC=C(C)C [Compound 11],MIC,MRSA N315,1.56 µg/mL
same,MIC,MRSA NCTC10442,1.56 µg/mL
same,MIC,Gram-positive bacteria; summary of tables 1 and 2,0.39 to 3.12 µg/mL
same,MIC,S. aureus ATCC29213,3.12 µg/mL
same,MIC,E. coli ATCC25922,> 100 µg/mL
C=C[C@@](C)(/C=C/c1ccc(OCCCCN(C)C)cc1)CCC=C(C)C [Compound 5],MIC,MRSA N315,1.56 µg/mL
same,MIC,MRSA NCTC10442,3.12 µg/mL
same,MIC,Gram-positive bacteria,0.39 to 3.12 µg/mL
same,MIC,S. aureus ATCC29213,1.56 µg/mL
same,MIC,E. coli ATCC25922,> 50 µg/mL
C=C[C@@](C)(/C=C/c1ccc(OCC(=O)N[C@@H](CCCCN)C(=O)OC)cc1)CCC=C(C)C [Compound 47],MIC,MRSA N315,6.25 µg/mL
same,MIC,MRSA NCTC10442,6.25 µg/mL
same,MIC,S. aureus ATCC29213,6.25 µg/mL
same,MIC,E. coli ATCC25922,12.5 µg/mL
C=C[C@](C)(/C=C/c1ccc(OCC(=O)N[C@H](CCCNC(=N)N)C(=O)N2CCN(c3ccc(N4CC(CNC(C)=O)OC4=O)cc3F)CC2)cc1)CCC=C(C)C (stereo partly shown) [Compound 53],MIC,MRSA N315,0.78 µg/mL
same,MIC,MRSA NCTC10442,0.78 µg/mL
same,MIC,Gram-positive bacteria; summary of tables 1 and 2,0.39 to 3.12 µg/mL
same,MIC,S. aureus ATCC29213,0.78 µg/mL
same,MIC,E. coli ATCC25922,6.25 µg/mL
C=C[C@@](C)(/C=C/c1ccc(OCCCCN2CCCC2)cc1)CCC=C(C)C [Compound 20],MIC,MRSA N315,1.56 µg/mL
same,MIC,MRSA NCTC10442,1.56 µg/mL
same,MIC,S. aureus ATCC29213,1.56 µg/mL
same,MIC,E. coli ATCC25922,> 100 µg/mL
C=C[C@@](C)(/C=C/c1ccc(OCCCN(CC)CC)cc1)CCC=C(C)C [Compound 9],MIC,MRSA N315,3.12 µg/mL
same,MIC,MRSA NCTC10442,3.12 µg/mL
same,MIC,Gram-positive bacteria,0.39 to 3.12 µg/mL
same,MIC,S. aureus ATCC29213,3.12 µg/mL
same,MIC,E. coli ATCC25922,> 100 µg/mL
C=C[C@@](C)(/C=C/c1ccc(OCCCN(C)C)cc1)CCC=C(C)C [Compound 8],MIC,MRSA N315,6.25 µg/mL
same,MIC,MRSA NCTC10442,6.25 µg/mL
same,MIC,S. aureus ATCC29213,6.25 µg/mL
same,MIC,E. coli ATCC25922,> 100 µg/mL
C=C[C@](C)(/C=C/c1ccc(OCC(=O)N[C@@H](Cc2c[nH]cn2)C(=O)N[C@@H](Cc2c[nH]cn2)C(=O)OC)cc1)CCC=C(C)C [Compound 55],MIC,MRSA N315,12.5 µg/mL
same,MIC,MRSA NCTC10442,12.5 µg/mL
same,MIC,S. aureus ATCC29213,12.5 µg/mL
same,MIC,E. coli ATCC25922,> 100 µg/mL
C=C[C@@](C)(/C=C/c1ccc(OCCCCN2CCNCCNCCNCCNCC2)cc1)CCC=C(C)C [Compound 31],MIC,MRSA N315,0.78 µg/mL
same,MIC,MRSA NCTC10442,1.56 µg/mL
same,MIC,Gram-positive bacteria; summary of tables 1 and 2,0.39 to 3.12 µg/mL
same,MIC,S. aureus ATCC29213,1.56 µg/mL
same,MIC,E. coli ATCC25922,6.25 µg/mL
C=C[C@@](C)(/C=C/c1ccc(OCCCCN(CC)CC)cc1)CCC=C(C)C [Compound 6],MIC,MRSA N315,3.12 µg/mL
same,MIC,MRSA NCTC10442,3.12 µg/mL
same,MIC,Gram-positive bacteria,0.39 to 3.12 µg/mL
same,MIC,S. aureus ATCC29213,3.12 µg/mL
same,MIC,E. coli ATCC25922,> 100 µg/mL
C=C[C@@](C)(/C=C/c1ccc(OCCCCNCC)cc1)CCC=C(C)C [Compound 14],MIC,MRSA N315,0.78 µg/mL
same,MIC,MRSA NCTC10442,1.56 µg/mL
same,MIC,Gram-positive bacteria; summary of tables 1 and 2,0.39 to 3.12 µg/mL
same,MIC,S. aureus ATCC29213,1.56 µg/mL
same,MIC,E. coli ATCC25922,12.5 µg/mL
C=C[C@](C)(/C=C/c1ccc(OCC(=O)N[C@@H](CCCNC(=N)N)C(=O)N[C@@H](CCCNC(=N)N)C(=O)N[C@@H](CCCNC(=N)N)C(=O)OC)cc1)CCC=C(C)C [Compound 45],MIC,MRSA N315,0.78 µg/mL
same,MIC,MRSA NCTC10442,1.56 µg/mL
same,MIC,Gram-positive bacteria,0.39 to 3.12 µg/mL
same,MIC,S. aureus ATCC29213,0.39 µg/mL
same,MIC,E. coli ATCC25922,6.25 µg/mL
C=C[C@](C)(/C=C/c1ccc(OCC(=O)N[C@@H](CCCNC(=N)N)C(=O)N[C@@H](CCCNC(=N)N)C(N)=O)cc1)CCC=C(C)C [Compound 49],MIC,MRSA N315,3.12 µg/mL
same,MIC,MRSA NCTC10442,1.56 µg/mL
same,MIC,Gram-positive bacteria,0.39 to 3.12 µg/mL
same,MIC,S. aureus ATCC29213,1.56 µg/mL
same,MIC,E. coli ATCC25922,12.5 µg/mL
C=C[C@@](C)(/C=C/c1ccc(OCCCCNCCCCCCCCCC)cc1)CCC=C(C)C [Compound 18],MIC,MRSA N315,12.5 µg/mL
same,MIC,MRSA NCTC10442,50 µg/mL
same,MIC,S. aureus ATCC29213,50 µg/mL
same,MIC,E. coli ATCC25922,> 100 µg/mL
C=C[C@@](C)(/C=C/c1ccc(OCCCCN)cc1)CCC=C(C)C [Compound 13],MIC,MRSA N315,0.78 µg/mL
same,MIC,MRSA NCTC10442,1.56 µg/mL
same,MIC,Gram-positive bacteria; summary of tables 1 and 2,0.39 to 3.12 µg/mL
same,MIC,S. aureus ATCC29213,1.56 µg/mL
same,MIC,E. coli ATCC25922,12.5 µg/mL
C=C[C@@](C)(/C=C/c1ccc(OCCCCN2CCN(C)CC2)cc1)CCC=C(C)C [Compound 21],MIC,MRSA N315,3.12 µg/mL
same,MIC,MRSA NCTC10442,3.12 µg/mL
same,MIC,S. aureus ATCC29213,1.56 µg/mL
same,MIC,E. coli ATCC25922,> 100 µg/mL
C=C[C@@](C)(/C=C/c1ccc(OCCCCNCCCCCC)cc1)CCC=C(C)C [Compound 16],MIC,MRSA N315,0.78 µg/mL
same,MIC,MRSA NCTC10442,1.56 µg/mL
same,MIC,Gram-positive bacteria; summary of tables 1 and 2,0.39 to 3.12 µg/mL
same,MIC,S. aureus ATCC29213,1.56 µg/mL
same,MIC,E. coli ATCC25922,100 µg/mL
C=C[C@](C)(/C=C/c1ccc(OCC(=O)N[C@@H](CCCNC(=N)N)C(=O)OC)cc1)CCC=C(C)C [Compound 38],MIC,MRSA N315,1.56 µg/mL
same,MIC,MRSA NCTC10442,0.78 µg/mL
same,MIC,Gram-positive bacteria,0.39 to 3.12 µg/mL
same,MIC,S. aureus ATCC29213,0.78 µg/mL
same,MIC,E. coli ATCC25922,6.25 µg/mL
C=C[C@@](C)(/C=C/c1ccc(OCCCCCCCCCCN(CC)CC)cc1)CCC=C(C)C [Compound 12],MIC,MRSA N315,3.12 µg/mL
same,MIC,MRSA NCTC10442,3.12 µg/mL
same,MIC,Gram-positive bacteria; summary of tables 1 and 2,0.39 to 3.12 µg/mL
same,MIC,S. aureus ATCC29213,12.5 µg/mL
same,MIC,E. coli ATCC25922,> 100 µg/mL
C=C[C@@](C)(/C=C\c1ccc(OCC(=O)N[C@@H](CCCNC(=N)N)C(=O)N[C@@H](Cc2c[nH]cn2)C(=O)OC)cc1)CCC=C(C)C [Compound 50],MIC,MRSA N315,6.25 µg/mL
same,MIC,MRSA NCTC10442,6.25 µg/mL
same,MIC,S. aureus ATCC29213,6.25 µg/mL
same,MIC,E. coli ATCC25922,12.5 µg/mL
C=C[C@](C)(/C=C/c1ccc(OCC(=O)N[C@H](CCCNC(=N)N)C(N)=O)cc1)CCC=C(C)C [Compound 39],MIC,MRSA N315,3.12 µg/mL
same,MIC,MRSA NCTC10442,3.12 µg/mL
same,MIC,Gram-positive bacteria,0.39 to 3.12 µg/mL
same,MIC,S. aureus ATCC29213,3.12 µg/mL
same,MIC,E. coli ATCC25922,12.5 µg/mL
C=C[C@@](C)(/C=C/c1ccc(OCCCCNCCCCCCCC)cc1)CCC=C(C)C [Compound 17],MIC,MRSA N315,1.56 µg/mL
same,MIC,MRSA NCTC10442,3.12 µg/mL
same,MIC,S. aureus ATCC29213,6.25 µg/mL
same,MIC,E. coli ATCC25922,> 100 µg/mL
C=C[C@@](C)(/C=C/c1ccc(OCCCCN(Cc2ccccn2)Cc2ccccn2)cc1)CCC=C(C)C [Compound 22],MIC,MRSA N315,1.56 µg/mL
same,MIC,MRSA NCTC10442,1.56 µg/mL
same,MIC,S. aureus ATCC29213,3.12 µg/mL
same,MIC,E. coli ATCC25922,> 100 µg/mL
